# Laboratory results published in publication PMC4696656, “Insights into the Mechanism of Action of Bactericidal Lipophosphonoxins” (PLoS ONE, 2015).
# Key:
# [1] = system: B. subtilis 168; test: Selection for resistant strains, stepwise two-fold increased concentration; type: cell-based, Bacillus subtilis; conditions: 24 h cultures, two-fold increased concentration each transfer; rifampicin from 0.01 mg/L, DR5026 from 0.5 mg/L
# Description: A) B. subtilis. […] Then, the growth of the culture was evaluated by OD600nm and an aliquot of the culture was transferred to a new tube with fresh medium and a two-fold increased concentration of the active compound. This template was followed until no growth was detected for DR5026 or until B. subtilis grew at 5 mg/L of rifampicin.
# [2] = system: mice; test: MTD test in mouse model, administration intraperitoneally; type: in vivo, Mice ICR
# Description: The MTD (maximum tolerated dose) in mouse model was carried out by MediTox s.r.o. on a commercial basis. The complete protocol for the MTD testing can be found in S3 Supporting Information.
# For the administration the appropriate amount of the Test item (TI) was dissolved in water (aqua for injection, B. Braun, Germany) and administered to mice either orally (in the volume of 0.5 mL/25 g of body weight) or intraperitoneally (in the volume of 1.0 mL/25 g of body weight).
# S3 and S4 Tables summarize the test system parameters, the number of animals used, and the doses tested. Briefly, for each dose, 3 males are 3 females were used.
# All animals from the study were observed daily for clinical signs, morbidity or mortality during acclimation, 0.5, 4, 6, 24 and 48 hours after administration. Onset, duration and severity of any signs were recorded, and used as criteria for early euthanasia decisions. The clinical observations included: changes in skin, fur, eyes, occurrence of secretion and excretion; autonomic activity (e.g. lacrimation, piloerection); changes in gait and posture; changes in unprovoked behavior, presence of stereotypes or bizarre behavior; response to handling. Ether was used for anesthesia in compliance with the Standard Operating Procedures (SOPs) of MediTox, the European convention for the protection of vertebrate animals used for experimental and other scientific purposes (ETS 123), the Czech Collection of laws No. 246/1992, inclusive of the amendments, on the Protection of animals against cruelty, and Public Notice of the Ministry of Agriculture of the Czech Republic, Collection of laws No. 419/2012 as amended, on keeping and exploitation of experimental animals. MediTox s.r.o. is a holder of the accreditation Certificate for user’s issued by Central Committee for Animal Protection of the Czech Republic.
# All the animals that died during study or survived to their scheduled euthanasia (cervical dislocation under ether anesthesia) 8th day after the administration received a complete post-mortem examination and microscopic examination of organs showing evidence of gross pathology. The cause of death of animals that died during the study before the scheduled euthanasia was mainly venostasis of kidneys and liver.
# S3 Supporting in formation. MTD test in mouse mo d el – a detailed […]
# The MTD (maximum tolerated dose) in mouse model was carried out by MediTox s.r.o. on the […]
# The stud y w as carried ou t accordin g to:
# ICH M3(R2) – The International Conference on Harmonization of Technical Requirements for Registration of Pharm aceuticals for Human Use. Relevant SOPs (Standard operating procedures ) […]
# Facility Management and Animal Husbandry
# Animal car e was in comp liance with th e SOPs of MediTox s.r.o., the Euro pean convention fo r the protection of vertebrate animals used for experimental and other scientific purposes (ETS 123), the Czech Collection of laws No. 246/1992, inclusive of the amendments, on the Protection of animals against cruelty, and Public Notice of the Ministry of Agriculture of the Czech Republic, Collection of laws No. 419/2012 as amended, on keeping and exploitation of experimental animals. MediTox s.r.o. is a holder of the accreditation Certificate for user’s issued by Central Committee for Animal Protection of the Czech Republic.
# Animal Welfare Act Compliance
# The stud y was prepared for this t ype of ex perimen t and approved b y th e Ins titutional Animal Care and Use Committee ( IAC UC) and the Committee for Animal Protection of the Ministry of Health (PP 09/2013) of the Czech Republic. Procedures used in this report were designed to conform to accepted practices and to minimize or avoid causing pain, distress, or discomfort to the animals.
# The number of animals selected for use in this study was considered to be the minimum number necessar y to meet scienti fic and regulator y guideli nes for this t ype of stud y.
# Preparation of the Test item application formulations […]
# [3] = Stability at different pH (LC-MS); type: physicochemical; conditions: pH 0.18, 5.00 and 8.80; 50 μM and 500 μM; room temperature and 37°C; 24 hours
# Description: Stability experiments were carried out at two concentrations and three pH values. Concentrations were 500 μmol/l (50 μl of 10 mM stock solution were dissolved in buffers of specific pH to a final volume of 1 ml) and 50 μmol/l (10 μl of stock solution were dissolved in buffers of specific pH to a final volume of 2 ml); pH: 0.18 (0.5 M HCl), 5 (0.1M NH4Ac adjusted with acetic acid), and 8.8 (0.1M NH4Ac adjusted with NaOH). The experiments were conducted at room temperature and 37°C, respectively. Samples were injected onto HPLC machine at different time points to assess the levels of decomposition. Time points: 0.5; 1; 3.5; 24 hrs. HPLC analytical parameters: Method: 0–100% B in 5 min, 100% C in 15 min, hold to 20 min. A = 25 mM NH4Ac, B = 25 mM NH4Ac in 50% MeCN, C = MeCN. Column: PFP, 100 x 4.6 mm, 3 um. Injection: 10 μl for 500 μM. Injection: 50 μl for 50 μM. Detection: PDA 210–400 nm; MS TIC 200–800 m/z.
# [4] = system: Caco-2 monolayers; test: Transepithelial transport in Caco-2 monolayers; type: in vitro ADME; conditions: 3 h incubation
# [5] = D2-IP 500 mg/kg i.p., females, 3 animals
# [6] = D2-IP 500 mg/kg i.p., males, 3 animals
# [7] = D3-IP 250 mg/kg i.p., females, 3 animals
# [8] = D3-IP 250 mg/kg i.p., males, 3 animals
# [9] = D4-IP 80 mg/kg i.p., females, 3 animals
# [10] = D4-IP 80 mg/kg i.p., males, 3 animals
# [11] = D5-IP 50 mg/kg i.p., females, 3 animals
# [12] = D5-IP 50 mg/kg i.p., males, 3 animals
compound,measurement,setting,value
CCCCCCCCCCCCCCCCOP(=O)(CCN1C[C@@H](O)[C@H](O)C1)OC[C@H]1O[C@@H](n2ccc(=O)[nH]c2=O)[C@H](O)[C@@H]1O (some centres unmarked) [DR5026],development of resistance,[1],failed to obtain cells that would grow at concentrations exceeding the MIC
same,gross pathology findings,"[2]; D1-IP, 5 mg/kg i.p., males and females",NO FINDINGS
same,"abdominal cavity red liquid, number of animals with finding",[2]; [5],2
same,"kidneys venostasis, number of animals with finding",[2]; [5],2
same,"liver venostasis, number of animals with finding",[2]; [5],2
same,"lungs focal hemorrhage, number of animals with finding",[2]; [5],1
same,"abdominal cavity red liquid, number of animals with finding",[2]; [6],2
same,"kidneys venostasis, number of animals with finding",[2]; [6],2
same,"liver venostasis, number of animals with finding",[2]; [6],2
same,"abdominal cavity red liquid, number of animals with finding",[2]; [7],3
same,"kidneys venostasis, number of animals with finding",[2]; [7],3
same,"liver venostasis, number of animals with finding",[2]; [7],3
same,"thoracic cavity red liquid, number of animals with finding",[2]; [7],1
same,"abdominal cavity red liquid, number of animals with finding",[2]; [8],3
same,"kidneys venostasis, number of animals with finding",[2]; [8],3
same,"liver venostasis, number of animals with finding",[2]; [8],3
same,"lungs venostasis, number of animals with finding",[2]; [8],1
same,"thoracic cavity red liquid, number of animals with finding",[2]; [8],1
same,"liver enlarged, number of animals with finding",[2]; [9],3
same,"liver rounded edges, number of animals with finding",[2]; [9],3
same,"abdominal cavity red liquid, number of animals with finding",[2]; [10],1
same,"kidneys venostasis, number of animals with finding",[2]; [10],1
same,"liver enlarged, number of animals with finding",[2]; [10],2
same,"liver rounded edges, number of animals with finding",[2]; [10],2
same,"liver venostasis, number of animals with finding",[2]; [10],1
same,"liver enlarged, number of animals with finding",[2]; [11],3
same,"liver rounded edges, number of animals with finding",[2]; [11],3
same,"spleen peritoneal adhesions, number of animals with finding",[2]; [11],1
same,"liver enlarged, number of animals with finding",[2]; [12],3
same,"liver peritoneal adhesions, number of animals with finding",[2]; [12],2
same,"liver rounded edges, number of animals with finding",[2]; [12],3
same,"spleen peritoneal adhesions, number of animals with finding",[2]; [12],2
same,safe limit (maximal tolerated dose),[2]; administered peritoneally,50 mg/kg
same,clinical signs,[2]; i.p. 80 mg/kg,all the monitored animals were slightly stolid 5 min after the administration
same,severe clinical signs / moribund animals,"[2]; i.p. 80 mg/kg, 24-26 hours",In one male a disturbance of locomotion was observed
same,clinical signs,[2]; i.p. 250 mg/kg and 500 mg/kg,exacerbated the symptoms
same,mortality,"[2]; i.p. 500 mg/kg, several hours after administration, 3 males + 3 females",death of 2 males and 2 females
same,signs of toxicity,[2]; i.p. 5 and 50 mg/kg,did not cause any signs of toxicity
same,stability (decomposition by LC-MS),[3],no detectable decomposition
same,compound in the Caco-2 cell lysate,[4],No compound was detected
same,compound at the basolateral (acceptor) side,[4]; apical to basolateral,No compound was detected
